{
  "source": "paper PMC4074034",
  "about": "“Gefitinib and Luteolin Cause Growth Arrest of Human Prostate Cancer PC-3 Cells via Inhibition of Cyclin G-Associated Kinase and Induction of miR-630” (PLoS ONE, 2014)",
  "target": "T1, GAK (cyclin G-associated kinase), GST-tagged human GAK (Homo sapiens, UniProt O14976)",
  "T1 sequence (O14976 1-1311)": "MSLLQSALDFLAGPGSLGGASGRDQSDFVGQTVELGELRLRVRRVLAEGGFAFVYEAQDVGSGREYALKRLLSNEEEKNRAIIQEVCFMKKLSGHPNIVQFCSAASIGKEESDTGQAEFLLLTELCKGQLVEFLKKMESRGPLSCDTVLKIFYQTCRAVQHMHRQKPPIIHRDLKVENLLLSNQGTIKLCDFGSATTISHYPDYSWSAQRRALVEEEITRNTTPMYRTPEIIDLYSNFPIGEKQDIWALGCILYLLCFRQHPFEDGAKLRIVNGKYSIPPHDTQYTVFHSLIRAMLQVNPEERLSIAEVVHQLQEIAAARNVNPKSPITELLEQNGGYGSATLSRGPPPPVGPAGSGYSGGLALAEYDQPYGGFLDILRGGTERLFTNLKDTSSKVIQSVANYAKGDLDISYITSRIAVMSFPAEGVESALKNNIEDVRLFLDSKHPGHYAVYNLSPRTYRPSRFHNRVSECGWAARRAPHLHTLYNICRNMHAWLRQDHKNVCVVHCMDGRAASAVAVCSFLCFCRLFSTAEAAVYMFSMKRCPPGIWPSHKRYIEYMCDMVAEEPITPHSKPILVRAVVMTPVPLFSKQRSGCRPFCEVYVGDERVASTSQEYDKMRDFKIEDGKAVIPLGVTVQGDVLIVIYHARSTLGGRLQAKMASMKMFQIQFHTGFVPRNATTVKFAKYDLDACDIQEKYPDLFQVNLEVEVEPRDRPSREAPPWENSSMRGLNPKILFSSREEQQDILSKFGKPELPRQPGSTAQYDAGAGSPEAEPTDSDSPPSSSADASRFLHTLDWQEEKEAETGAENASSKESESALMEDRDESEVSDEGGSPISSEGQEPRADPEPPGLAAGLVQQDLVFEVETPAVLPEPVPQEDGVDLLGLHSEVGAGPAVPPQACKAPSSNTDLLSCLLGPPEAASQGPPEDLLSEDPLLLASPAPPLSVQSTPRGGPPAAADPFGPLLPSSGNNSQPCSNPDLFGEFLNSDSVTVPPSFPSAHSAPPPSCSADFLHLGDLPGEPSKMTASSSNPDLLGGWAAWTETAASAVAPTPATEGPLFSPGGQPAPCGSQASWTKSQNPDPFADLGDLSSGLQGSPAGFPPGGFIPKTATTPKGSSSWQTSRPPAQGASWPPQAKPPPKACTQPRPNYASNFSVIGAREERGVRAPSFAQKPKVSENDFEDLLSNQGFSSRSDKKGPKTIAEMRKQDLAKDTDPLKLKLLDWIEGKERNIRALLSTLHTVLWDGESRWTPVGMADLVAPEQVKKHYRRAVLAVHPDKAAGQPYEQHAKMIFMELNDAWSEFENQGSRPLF",
  "experiment": "[…]-ATP in vitro kinase assay, SDS-PAGE autoradiography",
  "type": "biochemical",
  "settings": "substrate mouse PP2A B'γ fragment, also autophosphorylation, 5 µM ATP, 10 mM MgCl2, 5 mM MnCl2, pH 7.5, 30°C, 30 min",
  "data": [
    {"smiles": "C[S+]([O-])c1ccc(-c2nc(-c3ccc(F)cc3)c(-c3ccncc3)[nH]2)cc1", "note": "(stereo not shown) [SB203580]", "values": [
      {"measurement": "intensity ratio of phosphorylated PP2A B'γ and GAK", "result": "Both of these compounds inhibited GAK activity similarly"}
    ]},
    {"smiles": "C#Cc1cccc(Nc2ncnc3cc(OCCOC)c(OCCOC)cc23)c1", "note": "[erlotinib]", "values": [
      {"measurement": "intensity ratio of phosphorylated PP2A B'γ and GAK", "result": "Both of these compounds inhibited GAK activity similarly"}
    ]},
    {"smiles": "COc1cc2ncnc(Nc3ccc(F)c(Cl)c3)c2cc1OCCCN1CCOCC1", "note": "[gefitinib]", "values": [
      {"measurement": "intensity ratio of phosphorylated PP2A B'γ and GAK", "result": "Gefitinib inhibited GAK autophosphorylation and GAK-mediated phosphorylation of PP2A B′γ in a dose-dependent manner"}
    ]},
    {"smiles": "Oc1ccc(/C=C/c2cc(O)cc(O)c2)cc1", "note": "[resveratrol]", "values": [
      {"measurement": "intensity ratio of phosphorylated PP2A B'γ and GAK", "setting": "10 µM compound", "result": "the same concentration of resveratrol had only a slight inhibitory effect"}
    ]}
  ]
}
